Reference: patent US11845803B2, “Combination therapies for treatment of BCMA-related cancers and autoimmune disorders” (Fred Hutchinson Cancer Center, priority 2017, dated 2023)

Tested on: CD19 CAR-T cells co-cultured with Raji or K562/CD19+ target cells
Test: CD19 CAR-T cell viability and effector function in the presence of GSI
Assay type: cell-based, human
Description: (A) CD19 staining of K562 CD19^+ and Raji cells that were cultured with or without GSI for ±12-16 h. Isotype control shown as gray line.
(C) CD19 CAR-T cells were co-cultured with K562/CD19 target cells in media containing various concentrations of RO4929097. RO4929097 inhibits CD19 CAR-T cell effector function at concentrations of 3 μM when co-cultured, as determined by measuring IL-2 (upper panel) and IFNγ (lower panel) production.
(D) IL-2 production by CD19 CAR-T cells cultured with target cells in the presence of increasing concentrations of GSI RO4929097.
(E) IL-2 production by CD19 CAR-T cells cultured with target cells (“K562 CD19”) or control cells (“KS562 BCMA”) in the presence of increasing concentrations of GSI RO4929097. Cells were administered the indicated amounts of the GSI and then washed (empty bars) or not (filled bars).
(F) Data from another experiment showing IL-2 production by CD19 CAR-T cells after overnight co-culture with K562 BCMA^+ or K562 CD19^+ cells following pre-incubation with varying concentrations of GSI. After washing, GSI was either added back in (+/+) or left out of the co-culture (+/−) to assess the reversibility of cytokine production.
(G) Specific lysis, by CD19 CAR-T cells, of the indicated target or control cells in the presence of GSI RO4929097.
(H) Proliferation of CD19 CAR-T cells cultured with CD19-expressing target cells in the presence or absence of GSI or with control cells in the absence of GSI. Cells were stained with CFSE and proliferation was measured by flow cytometry.
(I) Graphic representation of the number of cell divisions of CD19 CAR-T cells in the presence of the indicated concentrations of GSI RO4929097. The width of the horizontal bars represents the proportion of CAR-T cells in culture that divided the indicated number of generations (i.e., 5, 4, 3, 2, 1, or 0 generations) over the course of the experiment.
[…] Cell counts (CD8 staining) during expansion of CD19-specific CAR-T cells with CD19^+ TM LCL cells and exogenous IL-2 in the absence of GSI (circle) or the presence of GSI at 0.5 μM (square) or 5 μM (triangle).
(K) Cell counts of CD19-specific CAR-T cells (CD4:CD8 (1:1) expanded with CD19^+ TM. LCL cells in the absence or presence of GSI as indicated, but without the addition of exogenous IL-2.
(L) IFN-γ concentrations in supernatants of GSI-expanded anti-CD19 CAR CD8^+ T cells following re-stimulation with K562 cells (no antigen), K562 CD19^+ cells, or Raji cells.
(M, N) Production of IFN-γ (M) and IL-2 (N) by the CD4:CD8 anti-CD19 CAR-T cell mixture following re-stimulation with the indicated cell lines in the absence of GSI or the presence of either 0.5 μM or 5 μM GSI.
Without wishing to be bound by theory, a potential caveat of using GSI to augment BCMA on myeloma cells to improve CAR-T cell recognition is that high concentrations of GSI may inhibit T-cell signaling and effector functions. See Eagar et al., Immunity 20(4):407, 2004. To evaluate potential effects of GSI on CAR T cells in a setting where target ligand expression remains stable, CD19 CAR-T cells were co-cultured with Raji or K562/CD19^+ target cells in the presence of GSI (0.01 μM to 100 μM) and measured viability and effector function. Over this concentration range there was no effect on CD19 antigen expression (FIG. 5A) or on CAR-T cell viability after 24 hours (FIG. 5B). […] However, the ability of the CD19 CAR-T cells to specifically kill target cells was not affected by GSI concentration (FIG. 5G). […] To further investigate the dosage effect of GSI on CAR-T cell division, a dose titration of GSI RO4929097 was added to co-cultures of CD19 CAR-T and target cells.

[1] = expanded in 5 μM, 0.5 μM or no GSI

Structure (SMILES): CC(C)(C(=O)NCC(F)(F)C(F)(F)F)C(=O)N[C@@H]1C(=O)Nc2ccccc2-c2ccccc21 [RO4929097]
- proliferation of CD19 CAR-T cells in response to target cells (10 μM GSI vs absence of GSI): less effectively
- expansion of CD19 CAR-T cells (8 days in culture with or without exogenous IL-2, GSI 0.5 or 5 μM): did not show a decrease in expansion
- CD19 antigen expression on target cells (GSI 0.01 μM to 100 μM): no effect
- CAR-T cell viability (GSI 0.01 μM to 100 μM, 24 hours): no effect
- T cell function (cytokine production, cell lysis activity, proliferation) (GSI at therapeutic levels): does not affect T cell function
- IFN-γ production on re-stimulation after expansion in GSI [1]: did not show a significant difference
- IL-2 production on re-stimulation after expansion in GSI [1]: not markedly different
- CAR-T cell division (non-therapeutic dose (10 μM)): detectably inhibit proliferation
- specific killing of target cells by CD19 CAR-T cells (range of GSI concentrations): not affected
- CAR-T cell division (therapeutic doses of GSI (0.01 μM-1 μM)): essentially unaffected or only slightly affected
